Laboratory results published in patent US12528814B2, “Bifunctional degraders of interleukin-1 receptor-associated kinases and therapeutic use thereof” (NURIX THERAPEUTICS, INC., priority 2020, dated 2026).
Where two headings read alike, the source gives them in different places.

Experiments:
[1] = molecular target: T1, IRAK4 (Homo sapiens (Human), UniProt Q9NWZ3); experiment: IRAK4 Degradation HiBiT Assay; settings: HiBiT-tagged Jurkat cells, 4 hrs; for Dmax: Jurkat; for DC50: read-out: Cellular IRAK4 HiBiT: DC50
Target sequence in this assay (Q9NWZ3 whole entry): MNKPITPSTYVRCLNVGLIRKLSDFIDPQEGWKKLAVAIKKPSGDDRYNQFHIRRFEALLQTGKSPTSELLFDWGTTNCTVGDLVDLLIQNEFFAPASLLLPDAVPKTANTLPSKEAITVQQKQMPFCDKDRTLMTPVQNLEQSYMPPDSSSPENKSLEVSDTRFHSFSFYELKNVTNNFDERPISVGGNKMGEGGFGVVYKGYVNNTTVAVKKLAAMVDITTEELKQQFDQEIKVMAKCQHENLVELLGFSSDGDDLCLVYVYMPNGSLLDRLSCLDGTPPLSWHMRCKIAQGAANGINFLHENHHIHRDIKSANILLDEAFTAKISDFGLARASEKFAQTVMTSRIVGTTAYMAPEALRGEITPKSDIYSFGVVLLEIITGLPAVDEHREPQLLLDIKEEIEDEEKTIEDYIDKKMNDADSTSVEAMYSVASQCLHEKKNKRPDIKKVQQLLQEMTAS

[2] = molecular target: T1, IRAK4; experiment: IRAK4 Biochemical HTRF Kinase Assay; settings: read-out: IRAK4 HTRF biochemical: IC50
Outline: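 HTRF KinEASE STK S1 format measuring IRAK4 phosphorylation of biotinylated peptide; reaction solution of 5 μM STK-S1, 10 mM ATP, 10 mM MgCl2 added (stock, to 10 μl final), 90 min at ambient temperature, detection 60 min. IC50 from sixteen-point duplicate curves by non-linear regression.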
Target sequence in this assay (Q9NWZ3 whole entry, species assumed): as the sequence (Q9NWZ3 whole entry) above

[3] = read-out: Cellular IRAK4 HiBiT: Dmax, Table 5, multiple runs
[4] = read-out: Cellular IRAK4 HiBiT: Dmax, Table 4

Structure (SMILES)	Dmax [1, 3] [%]	DC50 ([1]; Table 5, multiple runs) [nM]	IC50 ([2]; Table 5, multiple runs) [nM]	Dmax [1, 4] [%]	DC50 ([1]; Table 4) [nM]	IC50 ([2]; Table 4) [nM]
CNc1cc(-c2ccc3cc(C#N)cnn23)ncc1-c1nnc([C@H]2CC[C@@H](NC(=O)CN3CCC4(CC3)CN(c3ccc5c(c3)C(=O)N(C3CCC(=O)NC3=O)C5=O)C4)CC2)s1 (stereo partly shown) [Example 127, N-((1s,4s)-4-(5-(6-(3-cyanopyrrolo[1,2-b]pyridazin-7-yl)-4-(methylamino)pyridin-3-yl)-1,3,4-thiadiazol-2-yl)cyclohexyl)-2-(2-(2-(2,6-dioxopiperidin-3-yl)-1,3-dioxoisoindolin-5-yl)-2,7-diazaspiro[3.5]nonan-7-yl)acetamide]	58	187	0.8			
CC(C)Nc1cc(-c2ccc3cc(C#N)cnn23)ncc1-c1nnc(N2CCN(CCC3CCN(c4ccc5c(c4)C(=O)N(C4CCC(=O)NC4=O)C5=O)CC3)CC2)s1 (stereo not shown) [Example 16, 7-(5-(5-(4-(2-(1-(2-(2,6-dioxopiperidin-3-yl)-1,3-dioxoisoindolin-5-yl)piperidin-4-yl)ethyl)piperazin-1-yl)-1,3,4-thiadiazol-2-yl)-4-(isopropylamino)pyridin-2-yl)pyrrolo[1,2-b]pyridazine-3-carbonitrile]	53	190	1.7	62	127	1.7
CN[C@@H](C)C(=O)N[C@H](C(=O)N1C[C@@H](NC(=O)CCCCCCCCCCC(=O)N2CCN(c3nnc(-c4cnc(-c5ccc6cc(C#N)cnn56)cc4NC(C)C)s3)CC2)C[C@H]1C(=O)N[C@@H]1CCCc2ccccc21)C1CCCCC1 [Example 53, (2S,4S)-4-(12-(4-(5-(6-(3-cyanopyrrolo[1,2-b]pyridazin-7-yl)-4-(isopropylamino)pyridin-3-yl)-1,3,4-thiadiazol-2-yl)piperazin-1-yl)-12-oxododecanamido)-1-((S)-2-cyclohexyl-2-((S)-2-(methylamino)propanamido)acetyl)-N—((R)-1,2,3,4-tetrahydronaphthalen-1-yl)pyrrolidine-2-carboxamide]	82	8750	5.8	48	993	5.8
CC(C)Nc1cc(-c2ccc3cc(C#N)cnn23)ncc1-c1nnc(N2CCN(C3CCN(C(=O)c4ccc5c(c4)C(=O)N(C4CCC(=O)NC4=O)C5)CC3)CC2)s1 (stereo not shown) [Example 77, 7-(5-(5-(4-(1-(2-(2,6-dioxopiperidin-3-yl)-3-oxoisoindoline-5-carbonyl)piperidin-4-yl)piperazin-1-yl)-1,3,4-thiadiazol-2-yl)-4-(isopropylamino)pyridin-2-yl)pyrrolo[1,2-b]pyridazine-3-carbonitrile]	114	15.1	0.5			
CNc1cc(-c2ccc3cc(C#N)cnn23)ncc1-c1nnc(C23CCC(NC(=O)C4CCN(c5ccc6c(c5)C(=O)N(C5CCC(=O)NC5=O)C6=O)CC4)(CC2)CC3)s1 (stereo not shown) [Example 134, N-(4-(5-(6-(3-cyanopyrrolo[1,2-b]pyridazin-7-yl)-4-(methylamino)pyridin-3-yl)-1,3,4-thiadiazol-2-yl)bicyclo[2.2.2]octan-1-yl)-1-(2-(2,6-dioxopiperidin-3-yl)-1,3-dioxoisoindolin-5-yl)piperidine-4-carboxamide]	103	64.1	0.9			
CNc1cc(-c2ccc3cc(C#N)cnn23)ncc1-c1nnc(N2CCN(C[C@@H]3CCN(c4ccc5c(c4)n(C)c(=O)n5C4CCC(=O)NC4=O)C3)CC2)s1 (stereo partly drawn) [Example 92, 7-(5-(5-(4-(((3S)-1-(1-(2,6-dioxopiperidin-3-yl)-3-methyl-2-oxo-2,3-dihydro-1H-benzo[d]imidazol-5-yl)pyrrolidin-3-yl)methyl)piperazin-1-yl)-1,3,4-thiadiazol-2-yl)-4-(methylamino)pyridin-2-yl)pyrrolo[1,2-b]pyridazine-3-carbonitrile]		> 970	1			
CNc1cc(-c2ccc3cc(C#N)cnn23)ncc1-c1nnc([C@H]2CC[C@H](NC(=O)C3CCN(c4ccc5c(c4)C(=O)N(C4CCC(=O)NC4=O)C5=O)CC3)CC2)s1 (stereo partly shown) [Example 152, N-((1r,4r)-4-(5-(6-(3-cyanopyrrolo[1,2-b]pyridazin-7-yl)-4-(methylamino)pyridin-3-yl)-1,3,4-thiadiazol-2-yl)cyclohexyl)-1-(2-(2,6-dioxopiperidin-3-yl)-1,3-dioxoisoindolin-5-yl)piperidine-4-carboxamide]	113	63	0.9			
Cc1ncsc1-c1ccc(CNC(=O)[C@@H]2C[C@@H](O)CN2C(=O)[C@@H](NC(=O)C2(F)CC2)C(C)(C)C)c(OCCCCCC(=O)N2CCN(c3nnc(-c4cnc(-c5ccc6cc(C#N)cnn56)cc4NC(C)C)s3)CC2)c1 [Example 42, (2S,4R)—N-(2-((6-(4-(5-(6-(3-cyanopyrrolo[1,2-b]pyridazin-7-yl)-4-(isopropylamino)pyridin-3-yl)-1,3,4-thiadiazol-2-yl)piperazin-1-yl)-6-oxohexyl)oxy)-4-(4-methylthiazol-5-yl)benzyl)-1-((S)-2-(1-fluorocyclopropane-1-carboxamido)-3,3-dimethylbutanoyl)-4-hydroxypyrrolidine-2-carboxamide]	104	315	17.3	104	336	17.3
CC(C)Nc1cc(-c2ccc3cc(C#N)cnn23)ncc1-c1nnc([C@H]2CC[C@H](NC(=O)CCOCCOCCNc3cccc4c3C(=O)N(C3CCC(=O)NC3=O)C4=O)CC2)s1 (stereo partly shown) [Example 3, N-((1r,4r)-4-(5-(6-(3-cyanopyrrolo[1,2-b]pyridazin-7-yl)-4-(isopropylamino)pyridin-3-yl)-1,3,4-thiadiazol-2-yl)cyclohexyl)-3-(2-(2-((2-(2,6-dioxopiperidin-3-yl)-1,3-dioxoisoindolin-4-yl)amino)ethoxy)ethoxy)propanamide]	90	30.1	1.9	91	32	2.3
CNc1cc(-c2ccc3cc(C#N)cnn23)ncc1-c1nnc([C@H]2CC[C@H](NC(=O)[C@H]3C[C@@H](OCCNc4cccc5c4C(=O)N(C4CCC(=O)NC4=O)C5=O)C3)CC2)s1 (stereo partly drawn) [Example 69, (1s,3S)—N-((1r,4R)-4-(5-(6-(3-cyanopyrrolo[1,2-b]pyridazin-7-yl)-4-(methylamino)pyridin-3-yl)-1,3,4-thiadiazol-2-yl)cyclohexyl)-3-(2-((2-(2,6-dioxopiperidin-3-yl)-1,3-dioxoisoindolin-4-yl)amino)ethoxy)cyclobutane-1-carboxamide]	73	6.71	0.9	98	12.6	0.81
CNc1cc(-c2ccc3cc(C#N)cnn23)ncc1-c1nnc(C23CCC(NC(=O)CCCCCNc4ccc5c(c4)C(=O)N(C4CCC(=O)NC4=O)C5=O)(CC2)CC3)s1 (stereo not shown) [Example 108, N-(4-(5-(6-(3-cyanopyrrolo[1,2-b]pyridazin-7-yl)-4-(methylamino)pyridin-3-yl)-1,3,4-thiadiazol-2-yl)bicyclo[2.2.2]octan-1-yl)-6-((2-(2,6-dioxopiperidin-3-yl)-1,3-dioxoisoindolin-5-yl)amino)hexanamide]	70	45.7	1.4			
CNc1cc(-c2ccc3cc(C#N)cnn23)ncc1-c1nnc(C2CCC(NC(=O)C[C@H](NC(=O)[C@@H]3C[C@@H](O)CN3C(=O)[C@@H](NC(=O)C3(F)CC3)C(C)(C)C)c3ccccc3)CC2)s1 (stereo partly drawn) [Example 149, (2S,4R)—N—((S)-3-(((1r,4S)-4-(5-(6-(3-cyanopyrrolo[1,2-b]pyridazin-7-yl)-4-(methylamino)pyridin-3-yl)-1,3,4-thiadiazol-2-yl)cyclohexyl)amino)-3-oxo-1-phenylpropyl)-1-((S)-2-(1-fluorocyclopropane-1-carboxamido)-3,3-dimethylbutanoyl)-4-hydroxypyrrolidine-2-carboxamide]		> 9980	0.8			
CNc1cc(-c2ccc3cc(C#N)cnn23)ncc1-c1nnc([C@H]2CC[C@H](NC(=O)CCCCC(=O)N[C@H](C(=O)N3C[C@H](O)C[C@H]3C(=O)N[C@@H](C)c3ccc(-c4scnc4C)cc3)C(C)(C)C)CC2)s1 [Example 57, N1-((1r,4S)-4-(5-(6-(3-cyanopyrrolo[1,2-b]pyridazin-7-yl)-4-(methylamino)pyridin-3-yl)-1,3,4-thiadiazol-2-yl)cyclohexyl)-N6—((S)-1-((2S,4R)-4-hydroxy-2-(((S)-1-(4-(4-methylthiazol-5-yl)phenyl)ethyl)carbamoyl)pyrrolidin-1-yl)-3,3-dimethyl-1-oxobutan-2-yl)adipamide]	114	81.4	2.9	107	89.6	2.9
CNc1cc(-c2ccc3cc(C#N)cnn23)ncc1-c1nnc(N2CC3(CCN(C[C@@H]4CCN(c5ccc6c(c5)C(=O)N(C5CCC(=O)NC5=O)C6=O)C4)CC3)C2)s1 (stereo partly drawn) [Example 181, 7-(5-(5-(7-(((3S)-1-(2-(2,6-dioxopiperidin-3-yl)-1,3-dioxoisoindolin-5-yl)pyrrolidin-3-yl)methyl)-2,7-diazaspiro[3.5]nonan-2-yl)-1,3,4-thiadiazol-2-yl)-4-(methylamino)pyridin-2-yl)pyrrolo[1,2-b]pyridazine-3-carbonitrile]	41	6.94	0.6			
